# Assay results as given in patent US20040087514A1, “Nutritional compositions” (priority 2002, published 2004).
# Marks after values point to notes of the source that are not given here.
# Experiments:
# Assay type in all cases: in vivo, human
# [1] = Clinical study, plasma glucose, galactose, free fatty acids, glycerol (Example 1); conditions: data not shown
# Procedure: (§1) A randomized, placebo-controlled trial was performed in 20 subjects (12 women, 8 men) [body mass index (in kg/m^2): 23]. Subjects received 5 times at least one week apart- a load consisting of galactose (50 g) alone or in combination with guar gum (2,5 g), solved in 250 ml water, or 250 ml water without any additives. Prior to each treatment a catheter was placed in an anticubital vein. Eating behavior and dietary restraint status of subjects were investigated using a validated Dutch translation of the Three Factor Eating Questionnaire (TFEQ). The study was approved by the Medical Ethics Committee of the Maastricht University.
# insulin release = test: Clinical study, insulin levels after ingestion of load (Example 1); conditions: mean
# Procedure: as §1
# [2] = test system: C-peptide (indicator of insulin secretion); test: Clinical study, C-peptide levels after ingestion of load (Example 1); conditions: mean
# Procedure: as §1
# [3] = test system: healthy, normal-weight subjects; test: Clinical study, perception of satiety, Visual Analog Scale (Example 1); conditions: mean from 100 mm Visual Analog Scale
# Procedure: as §1
# GLP-1 secretion = test: Clinical study, GLP-1 levels after ingestion of load (Example 1); conditions: for GLP-1 (A): mean
# Procedure: as §1
smiles,measurement,setting,value
"O=C[C@H](O)[C@@H](O)[C@@H](O)[C@H](O)CO [Galactose, galactose]",galactose levels,[1],increased galactose levels significantly
same,Insulin (B),insulin release; 0 minutes,7.3 mU/l
same,Insulin (B),insulin release; 30 minutes after ingestion,21# mU/l
same,Insulin (B),insulin release; 60 minutes after ingestion,13 mU/l
same,Insulin (B),insulin release; 90 minutes after ingestion,12 mU/l
same,Insulin (B),insulin release; 120 minutes after ingestion,9.9 mU/l
same,Insulin (B),insulin release; 240 minutes after ingestion,4.7 mU/l
same,C-peptide (A),[2]; 0 minutes,0.61 nmol/L
same,C-peptide (A),[2]; 30 minutes after ingestion,1.03^# nmol/l
same,C-peptide (A),[2]; 60 minutes after ingestion,0.89^# nmol/l
same,C-peptide (A),[2]; 120 minutes after ingestion,0.88 nmol/L
same,Satiety (B),[3]; 0 minutes,27^ mm
same,Satiety (B),[3]; 30 minutes,34# mm
same,Satiety (B),[3]; 60 minutes,33# mm
same,Satiety (B),[3]; 90 minutes,25# mm
same,Satiety (B),[3]; 120 minutes,31# mm
same,Satiety (B),[3]; 240 minutes,20^ mm
same,GLP-1 (A),"GLP-1 secretion; 0 minutes, 50 g galactose (+2,5 g guar gum) in 250 ml water",3.8 pmol/L
same,GLP-1 release compared to water,"GLP-1 secretion; 30 minutes after ingestion of the load, p<0.05",significantly elevated
same,GLP-1 (A),GLP-1 secretion; 30 minutes after ingestion,4.6^# pmol/l
same,GLP-1 (A),GLP-1 secretion; 60 minutes after ingestion,3.5 pmol/L
same,GLP-1 (A),GLP-1 secretion; 90 minutes after ingestion,3.2 pmol/L
same,GLP-1 (A),GLP-1 secretion; 120 minutes after ingestion,3.7 pmol/L
same,GLP-1 (A),GLP-1 secretion; 240 minutes after ingestion,3.7 pmol/L
